Measurements reported in patent US10597388B2, “Pyridazinone herbicides” (FMC CORPORATION, priority 2014, dated 2020).

What was measured:
Test in all cases: Test C greenhouse herbicide test, pre- and postemergence
Type in all cases: in vivo
[1] = test system: barnyardgrass (Echinochloa crus-galli)
Source text: (§1) Seeds of plant species selected from blackgrass (Alopecurus myosuroides), ryegrass, Italian (Italian ryegrass, Lolium multiflorum), wheat (winter wheat, Triticum aestivum), galium (catchweed bedstraw, Galium aparine), corn (Zea mays), large crabgrass, large (large crabgrass, Digitaria sanguinalis), foxtail, giant (giant foxtail, Setaria faberii), johnsongrass (Sorghum halepense), lambsquarters (Chenopodium album), morningglory (Ipomoea coccinea), nutsedge, yellow (yellow nutsedge, Cyperus esculentus), pigweed (Amaranthus retroflexus), ragweed (common ragweed, Ambrosia elatior), soybean (Glycine max), barnyardgrass (Echinochloa crus-galli), oilseed rape (Brassica napus), waterhemp (common waterhemp, Amaranthus rudis), and velvetleaf (Abutilon theophrasti) were planted into a blend of loam soil and sand and treated preemergence with test chemicals formulated in a non-phytotoxic solvent mixture which included a surfactant.
(§2) At the same time, plants selected from these crop and weed species and also chickweed (common chickweed, Stellaria media), kochia (Kochia scoparia), and oat, wild (wild oat, Avena fatua), were planted in pots containing Redi-Earth® planting medium (Scotts Company, 14111 Scottslawn Road, Marysville, Ohio 43041) comprising spaghnum peat moss, vermiculite, wetting agent and starter nutrients and treated with postemergence applications of test chemicals formulated in the same manner. Plants ranged in height from 2 to 18 cm (1- to 4-leaf stage) for postemergence treatments. Treated plants and controls were maintained in a greenhouse for 13 to 15 d, after which time all species were compared to controls and visually evaluated. Plant response ratings, summarized in Table C, are based on a scale of 0 to 100 where 0 is no effect and 100 is complete control. A dash (-) response means no test result.

[2] = test system: blackgrass (Alopecurus myosuroides)
Source text: as §1, §2

corn (Zea mays) = test system: corn (Zea mays)
Source text: as §1, §2

[3] = test system: crabgrass, large (large crabgrass, Digitaria sanguinalis)
Source text: as §1, §2

[4] = test system: foxtail, giant (giant foxtail, Setaria faberii)
Source text: as §1, §2

[5] = test system: galium (catchweed bedstraw, Galium aparine)
Source text: as §1, §2

[6] = test system: lambsquarters (Chenopodium album)
Source text: as §1, §2

[7] = test system: morningglory (Ipomoea coccinea)
Source text: as §1, §2

[8] = test system: nutsedge, yellow (yellow nutsedge, Cyperus esculentus)
Source text: as §1, §2

[9] = test system: pigweed (Amaranthus retroflexus)
Source text: as §1, §2

[10] = test system: ryegrass, Italian (Italian ryegrass, Lolium multiflorum)
Source text: as §1, §2

soybean (Glycine max) = test system: soybean (Glycine max)
Source text: as §1, §2

[11] = test system: velvetleaf (Abutilon theophrasti)
Source text: as §1, §2

[12] = test system: waterhemp (common waterhemp, Amaranthus rudis)
Source text: as §1, §2

[13] = test system: wheat (winter wheat, Triticum aestivum)
Source text: as §1, §2

[14] = Postemergence, 31 g ai/ha, 0 to 100 scale (0 no effect, 100 complete control)
[15] = Postemergence, 125 g ai/ha, scale 0 to 100, 0 is no effect, 100 is complete control
[16] = Postemergence, 250 g ai/ha, scale 0 to 100, 0 no effect, 100 complete control, 13 to 15 d
[17] = Preemergence, 31 g ai/ha, scale 0 to 100, 0 is no effect, 100 is complete control
[18] = Preemergence, 62 g ai/ha, scale 0 to 100, 0 is no effect, 100 is complete control
[19] = Preemergence, 125 g ai/ha, scale 0 to 100, 0 is no effect, 100 is complete control
[20] = Preemergence, 250 g ai/ha, scale 0 to 100, 0 no effect, 100 complete control
[21] = postemergence, 62 g ai/ha, scale 0 to 100, 0 no effect, 100 complete control

## Cc1cc(C)c2ccccc2c1-c1c(O)c(C)nn(C)c1=O [Compound 21]
[1]; [14]
  Barnyardgrass plant response rating: 35
[1]; [15]
  Plant response rating, Barnyardgrass: 75
[1]; [16]
  Plant response rating, Barnyardgrass: 90
[1]; [17]
  Plant response rating, Barnyardgrass: 80
[1]; [18]
  Plant response rating, Barnyardgrass: 100
[1]; [19]
  Plant response rating, Barnyardgrass: 100
[1]; [20]
  Barnyardgrass plant response rating: 100
[1]; [21]
  Barnyardgrass plant response rating: 45
[2]; [14]
  Blackgrass plant response rating: 80
[2]; [15]
  Plant response rating, Blackgrass: 90
[2]; [16]
  Plant response rating, Blackgrass: 95
[2]; [17]
  Plant response rating, Blackgrass: 90
[2]; [18]
  Plant response rating, Blackgrass: 90
[2]; [19]
  Plant response rating, Blackgrass: 90
[2]; [20]
  Blackgrass plant response rating: 90
[2]; [21]
  Blackgrass plant response rating: 90
Corn (Zea mays); [14]
  Corn plant response rating: 5
Corn (Zea mays); [15]
  Plant response rating, Corn: 20
Corn (Zea mays); [16]
  Plant response rating, Corn: 20
Corn (Zea mays); [17]
  Plant response rating, Corn: 0
Corn (Zea mays); [18]
  Plant response rating, Corn: 15
Corn (Zea mays); [19]
  Plant response rating, Corn: 40
Corn (Zea mays); [20]
  Corn plant response rating: 65
Corn (Zea mays); [21]
  Corn plant response rating: 65
[3]; [14]
  Crabgrass, Large plant response rating: 30
[3]; [15]
  Plant response rating, Crabgrass, Large: 40
[3]; [16]
  Plant response rating, Crabgrass, Large: 55
[3]; [17]
  Plant response rating, Crabgrass, Large: 35
[3]; [18]
  Plant response rating, Crabgrass, Large: 85
[3]; [19]
  Plant response rating, Crabgrass, Large: 85
[3]; [20]
  Crabgrass, Large plant response rating: 100
[3]; [21]
  Crabgrass, Large plant response rating: 35
[4]; [14]
  Foxtail, Giant plant response rating: 55
[4]; [15]
  Plant response rating, Foxtail, Giant: 90
[4]; [16]
  Plant response rating, Foxtail, Giant: 95
[4]; [17]
  Plant response rating, Foxtail, Giant: 100
[4]; [18]
  Plant response rating, Foxtail, Giant: 100
[4]; [19]
  Plant response rating, Foxtail, Giant: 100
[4]; [20]
  Foxtail, Giant plant response rating: 100
[4]; [21]
  Foxtail, Giant plant response rating: 80
[5]; [14]
  Galium plant response rating: 98
[5]; [15]
  Plant response rating, Galium: 100
[5]; [16]
  Plant response rating, Galium: 100
[5]; [17]
  Plant response rating, Galium: 98
[5]; [18]
  Plant response rating, Galium: 98
[5]; [19]
  Plant response rating, Galium: 98
[5]; [20]
  Galium plant response rating: 100
[5]; [21]
  Galium plant response rating: 100
[6]; [14]
  Lambsquarters plant response rating: 85
[6]; [15]
  Plant response rating, Lambsquarters: 95
[6]; [16]
  Plant response rating, Lambsquarters: 98
[6]; [17]
  Plant response rating, Lambsquarters: 90
[6]; [18]
  Plant response rating, Lambsquarters: 98
[6]; [19]
  Plant response rating, Lambsquarters: 98
[6]; [20]
  Lambsquarters plant response rating: 100
[6]; [21]
  Lambsquarters plant response rating: 90
[7]; [14]
  Morningglory plant response rating: 85
[7]; [15]
  Plant response rating, Morningglory: 100
[7]; [16]
  Plant response rating, Morningglory: 100
[7]; [17]
  Plant response rating, Morningglory: 95
[7]; [18]
  Plant response rating, Morningglory: 98
[7]; [19]
  Plant response rating, Morningglory: 100
[7]; [20]
  Morningglory plant response rating: 100
[7]; [21]
  Morningglory plant response rating: 100
[8]; [14]
  Nutsedge, Yellow plant response rating: 85
[8]; [15]
  Plant response rating, Nutsedge, Yellow: 90
[8]; [16]
  Plant response rating, Nutsedge, Yellow: 90
[8]; [17]
  Plant response rating, Nutsedge, Yellow: 75
[8]; [18]
  Plant response rating, Nutsedge, Yellow: 85
[8]; [19]
  Plant response rating, Nutsedge, Yellow: 85
[8]; [20]
  Nutsedge, Yellow plant response rating: 85
[8]; [21]
  Nutsedge, Yellow plant response rating: 90
[9]; [14]
  Pigweed plant response rating: 70
[9]; [15]
  Plant response rating, Pigweed: 95
[9]; [16]
  Plant response rating, Pigweed: 98
[9]; [17]
  Plant response rating, Pigweed: 100
[9]; [18]
  Plant response rating, Pigweed: 100
[9]; [19]
  Plant response rating, Pigweed: 100
[9]; [20]
  Pigweed plant response rating: 100
[9]; [21]
  Pigweed plant response rating: 95
[10]; [14]
  Ryegrass, Italian plant response rating: 90
[10]; [15]
  Plant response rating, Ryegrass, Italian: 95
[10]; [16]
  Plant response rating, Ryegrass, Italian: 95
[10]; [17]
  Plant response rating, Ryegrass, Italian: 90
[10]; [18]
  Plant response rating, Ryegrass, Italian: 90
[10]; [19]
  Plant response rating, Ryegrass, Italian: 90
[10]; [20]
  Ryegrass, Italian plant response rating: 95
[10]; [21]
  Ryegrass, Italian plant response rating: 95
Soybean (Glycine max); [14]
  Soybean plant response rating: 0
Soybean (Glycine max); [15]
  Plant response rating, Soybean: 10
Soybean (Glycine max); [16]
  Plant response rating, Soybean: 20
Soybean (Glycine max); [18]
  Plant response rating, Soybean: 0
Soybean (Glycine max); [19]
  Plant response rating, Soybean: 0
Soybean (Glycine max); [20]
  Soybean plant response rating: 20
Soybean (Glycine max); [21]
  Soybean plant response rating: 0
[11]; [14]
  Velvetleaf plant response rating: 75
[11]; [15]
  Plant response rating, Velvetleaf: 85
[11]; [16]
  Plant response rating, Velvetleaf: 90
[11]; [18]
  Plant response rating, Velvetleaf: 90
[11]; [19]
  Plant response rating, Velvetleaf: 98
[11]; [20]
  Velvetleaf plant response rating: 98
[11]; [21]
  Velvetleaf plant response rating: 85
[12]; [14]
  Waterhemp plant response rating: 40
[12]; [15]
  Plant response rating, Waterhemp: 85
[12]; [16]
  Plant response rating, Waterhemp: 80
[12]; [18]
  Plant response rating, Waterhemp: 95
[12]; [19]
  Plant response rating, Waterhemp: 100
[12]; [20]
  Waterhemp plant response rating: 100
[12]; [21]
  Waterhemp plant response rating: 75
[13]; [14]
  Wheat plant response rating: 0
[13]; [15]
  Plant response rating, Wheat: 35
[13]; [16]
  Plant response rating, Wheat: 35
[13]; [18]
  Plant response rating, Wheat: 5
[13]; [19]
  Plant response rating, Wheat: 30
[13]; [20]
  Wheat plant response rating: 40
[13]; [21]
  Wheat plant response rating: 5

## CC(=O)Oc1c(Cl)nn(C)c(=O)c1-c1c(C)sc2ccc(Cl)cc12 [Compound 116]
[1]; [17]
  Plant response rating, Barnyardgrass: 5
[1]; [18]
  Plant response rating, Barnyardgrass: 30
[1]; [19]
  Plant response rating, Barnyardgrass: 70
[1]; [20]
  Barnyardgrass plant response rating: 95
[2]; [17]
  Plant response rating, Blackgrass: 0
[2]; [18]
  Plant response rating, Blackgrass: 5
[2]; [19]
  Plant response rating, Blackgrass: 30
[2]; [20]
  Blackgrass plant response rating: 35
Corn (Zea mays); [17]
  Plant response rating, Corn: 0
Corn (Zea mays); [18]
  Plant response rating, Corn: 0
Corn (Zea mays); [19]
  Plant response rating, Corn: 60
Corn (Zea mays); [20]
  Corn plant response rating: 25
[3]; [17]
  Plant response rating, Crabgrass, Large: 0
[3]; [18]
  Plant response rating, Crabgrass, Large: 20
[3]; [19]
  Plant response rating, Crabgrass, Large: 50
[3]; [20]
  Crabgrass, Large plant response rating: 90
[5]; [17]
  Plant response rating, Galium: 60
[5]; [18]
  Plant response rating, Galium: 85
[5]; [19]
  Plant response rating, Galium: 100
[5]; [20]
  Galium plant response rating: 100
[6]; [17]
  Plant response rating, Lambsquarters: 65
[6]; [18]
  Plant response rating, Lambsquarters: 98
[6]; [19]
  Plant response rating, Lambsquarters: 90
[6]; [20]
  Lambsquarters plant response rating: 95
[7]; [17]
  Plant response rating, Morningglory: 55
[7]; [18]
  Plant response rating, Morningglory: 80
[7]; [19]
  Plant response rating, Morningglory: 85
[7]; [20]
  Morningglory plant response rating: 98
[8]; [17]
  Plant response rating, Nutsedge, Yellow: 0
[8]; [18]
  Plant response rating, Nutsedge, Yellow: 35
[8]; [19]
  Plant response rating, Nutsedge, Yellow: 85
[8]; [20]
  Nutsedge, Yellow plant response rating: 95
[9]; [17]
  Plant response rating, Pigweed: 95
[9]; [18]
  Plant response rating, Pigweed: 100
[9]; [19]
  Plant response rating, Pigweed: 100
[9]; [20]
  Pigweed plant response rating: 100
[10]; [17]
  Plant response rating, Ryegrass, Italian: 5
[10]; [18]
  Plant response rating, Ryegrass, Italian: 30
[10]; [19]
  Plant response rating, Ryegrass, Italian: 70
[10]; [20]
  Ryegrass, Italian plant response rating: 90
Soybean (Glycine max); [18]
  Plant response rating, Soybean: 0
Soybean (Glycine max); [19]
  Plant response rating, Soybean: 0
Soybean (Glycine max); [20]
  Soybean plant response rating: 5
[11]; [17]
  Plant response rating, Velvetleaf: 70
[11]; [18]
  Plant response rating, Velvetleaf: 85
[11]; [19]
  Plant response rating, Velvetleaf: 100
[11]; [20]
  Velvetleaf plant response rating: 100
[12]; [17]
  Plant response rating, Waterhemp: 55
[12]; [18]
  Plant response rating, Waterhemp: 70
[12]; [19]
  Plant response rating, Waterhemp: 80
[12]; [20]
  Waterhemp plant response rating: 100
[13]; [17]
  Plant response rating, Wheat: 0
[13]; [18]
  Plant response rating, Wheat: 0
[13]; [19]
  Plant response rating, Wheat: 5
[13]; [20]
  Wheat plant response rating: 15
